Source: ChEMBL document CHEMBL5674872, “JMJD3 aids in reprogramming of bone marrow progenitor cells to hepatic phenotype through epigenetic activation of hepatic transcription factors” (PLoS One, 2017)
Activity calls are given as the source filed them. No cut-off for these calls is given here.

What was measured:
Conditions in all cases: time 14.0 day
[1] = test system: Lin-BM; assay: Inhibition of JMJD3 expression in Bl6/J female eGFP-expressing mouse Lin-BM cells at 100 nM incubated for 14 days by immuno-cytochemistry analysis; assay type: functional, cell-based
[2] = target: Lysine-specific demethylase 6B (Mus musculus) (UniProt Q5NCY0); assay: Inhibition of JMJD3 expression in Bl6/J female eGFP-expressing mouse Lin-BM cells assessed as reduction in hepatic differentiation at 100 nM incubated for 14 days by immuno-cytochemistry analysis; assay type: cell-based
Lysine-specific demethylase 6B (Mus musculus), sequence (Q5NCY0 whole entry): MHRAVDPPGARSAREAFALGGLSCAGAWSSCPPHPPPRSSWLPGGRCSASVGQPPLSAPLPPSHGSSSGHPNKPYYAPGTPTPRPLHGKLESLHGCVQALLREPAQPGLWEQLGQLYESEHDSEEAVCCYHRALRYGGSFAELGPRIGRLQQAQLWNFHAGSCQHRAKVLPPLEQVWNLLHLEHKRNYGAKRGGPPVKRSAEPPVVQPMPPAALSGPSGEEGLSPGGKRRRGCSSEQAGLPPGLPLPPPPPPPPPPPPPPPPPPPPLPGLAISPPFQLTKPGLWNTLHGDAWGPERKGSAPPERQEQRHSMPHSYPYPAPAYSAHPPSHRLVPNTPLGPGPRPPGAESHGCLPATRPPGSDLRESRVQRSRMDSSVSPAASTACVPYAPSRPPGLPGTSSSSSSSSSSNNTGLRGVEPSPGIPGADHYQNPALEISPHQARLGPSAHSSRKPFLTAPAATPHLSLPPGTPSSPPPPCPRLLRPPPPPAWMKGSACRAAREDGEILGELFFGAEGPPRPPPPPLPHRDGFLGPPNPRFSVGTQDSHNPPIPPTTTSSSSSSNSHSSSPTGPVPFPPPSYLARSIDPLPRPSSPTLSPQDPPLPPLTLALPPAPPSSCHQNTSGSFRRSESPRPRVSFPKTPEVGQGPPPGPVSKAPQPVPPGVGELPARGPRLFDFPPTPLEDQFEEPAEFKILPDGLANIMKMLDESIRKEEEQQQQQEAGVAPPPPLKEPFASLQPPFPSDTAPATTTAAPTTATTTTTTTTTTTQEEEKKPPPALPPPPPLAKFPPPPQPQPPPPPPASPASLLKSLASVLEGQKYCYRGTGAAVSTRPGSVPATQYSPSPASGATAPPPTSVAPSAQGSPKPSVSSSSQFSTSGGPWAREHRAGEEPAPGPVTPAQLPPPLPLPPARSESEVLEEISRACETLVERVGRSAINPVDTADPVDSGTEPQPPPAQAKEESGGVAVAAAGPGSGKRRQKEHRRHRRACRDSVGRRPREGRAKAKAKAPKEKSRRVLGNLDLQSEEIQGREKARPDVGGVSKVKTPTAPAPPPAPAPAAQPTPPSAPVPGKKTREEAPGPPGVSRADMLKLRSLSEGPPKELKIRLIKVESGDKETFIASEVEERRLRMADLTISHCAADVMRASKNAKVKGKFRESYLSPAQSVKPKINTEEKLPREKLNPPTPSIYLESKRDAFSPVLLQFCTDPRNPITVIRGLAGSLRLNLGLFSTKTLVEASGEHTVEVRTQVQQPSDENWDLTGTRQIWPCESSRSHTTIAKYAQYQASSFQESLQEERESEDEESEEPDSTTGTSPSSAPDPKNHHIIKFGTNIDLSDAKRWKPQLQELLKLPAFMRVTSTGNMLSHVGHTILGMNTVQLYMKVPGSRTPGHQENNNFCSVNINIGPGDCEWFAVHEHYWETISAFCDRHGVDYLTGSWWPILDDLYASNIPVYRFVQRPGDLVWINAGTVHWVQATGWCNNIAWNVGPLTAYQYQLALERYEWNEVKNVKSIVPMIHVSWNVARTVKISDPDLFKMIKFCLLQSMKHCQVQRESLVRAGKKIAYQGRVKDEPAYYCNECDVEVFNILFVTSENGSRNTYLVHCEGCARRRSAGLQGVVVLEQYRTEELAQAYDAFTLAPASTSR

[3] = target: Lysine-specific demethylase 6B (Mus musculus) (UniProt Q5NCY0); assay: Inhibition of JMJD3 expression in Bl6/J female eGFP-expressing mouse Lin-BM cells assessed as H3K27me3 enrichments level at promoters of HNF4-alpha at 100 nM incubated for 14 days by ChIP-qPCR method; assay type: cell-based
[4] = target: Lysine-specific demethylase 6B (Mus musculus) (UniProt Q5NCY0); assay: Inhibition of JMJD3 expression in Bl6/J female eGFP-expressing mouse Lin-BM cells assessed as H3K27me3 enrichments level at promoters of HNF3-alpha at 100 nM incubated for 14 days by ChIP-qPCR method; assay type: cell-based
[5] = target: Lysine-specific demethylase 6B (Mus musculus) (UniProt Q5NCY0); assay: Inhibition of JMJD3 expression in Bl6/J female eGFP-expressing mouse Lin-BM cells assessed as H3K27me3 enrichments level at promoters of HNF3-beta at 100 nM incubated for 14 days by ChIP-qPCR method; assay type: cell-based
[6] = target: Lysine-specific demethylase 6B (Mus musculus) (UniProt Q5NCY0); assay: Inhibition of JMJD3 expression in Bl6/J female eGFP-expressing mouse Lin-BM cells assessed as H3K27me3 enrichments level at promoters of HNF1-alpha at 100 nM incubated for 14 days by ChIP-qPCR method; assay type: cell-based
[7] = target: Lysine-specific demethylase 6B (Mus musculus) (UniProt Q5NCY0); assay: Inhibition of JMJD3 expression in Bl6/J female eGFP-expressing mouse Lin-BM cells assessed as H3K27me3 enrichments level at promoters of CEBP-alpha at 100 nM incubated for 14 days by ChIP-qPCR method; assay type: cell-based
[8] = target: Lysine-specific demethylase 6B (Mus musculus) (UniProt Q5NCY0); assay: Inhibition of JMJD3 expression in Bl6/J female eGFP-expressing mouse Lin-BM cells assessed as H3K27me3 enrichments level at promoters of GATA4 at 100 nM incubated for 14 days by ChIP-qPCR method; assay type: cell-based
[9] = target: Lysine-specific demethylase 6B (Mus musculus) (UniProt Q5NCY0); assay: Inhibition of JMJD3 expression in Bl6/J female eGFP-expressing mouse Lin-BM cells assessed as prevention of loss of H3K27me3 chromatin mark at 100 nM incubated for 14 days by immuno-cytochemical analysis; assay type: cell-based

inhibition [2]: Active
inhibition [3]: Active
inhibition [4]: Active
inhibition [5]: Active
inhibition [6]: Active
inhibition [7]: Active
inhibition [8]: Active
inhibition [9]: Active
SMILES: CCOC(=O)CCNc1cc(N2CCc3ccccc3CC2)nc(-c2ccccn2)n1
inhibition [1]: Active
